Measurements taken from PubChem BioAssay AID330 (DTP/NCI, 2004).
Several values for one entry are separate records, joined by “and”; a condition that tells them apart may be missing. Equal entries are not always repeated. Inconclusive results and toxic doses are left out.

System: P388 leukemia ip, CD2F1 mice, survival T/C
Experiment: NCI In Vivo Anticancer Drug Screen. Data for tumor model P388 Leukemia (intraperitoneal) in CD2F1 (CDF1) mice
Settings: endpoint: median survival time, higher = longer survival
In short: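 Mice carrying the transplanted tumor received test compound or vehicle. Survival was recorded in each group, and the value is the treated-group measurement divided by that of the vehicle-treated control group.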

[1] = dose: 5.0 mg/kg/injection, schedule: Q01DX009 (ip), vehicle: Klucel (hydroxypropylcellulose) (HPC)
[2] = dose: 10.0 mg/kg/injection, schedule: Q01DX009 (ip), vehicle: Klucel (hydroxypropylcellulose) (HPC)
[3] = dose: 20.0 mg/kg/injection, schedule: Q01DX009 (ip), vehicle: Klucel (hydroxypropylcellulose) (HPC)
[4] = dose: 50.0 mg/kg/injection, schedule: Q01DX005 (ip), vehicle: saline with Tween-80
[5] = dose: 100.0 mg/kg/injection, schedule: Q01DX005 (ip), vehicle: saline with Tween-80
[6] = dose: 60.0 mg/kg/injection, schedule: Q01DX005 (ip), vehicle: saline with Tween-80
[7] = dose: 120.0 mg/kg/injection, schedule: Q01DX005 (ip), vehicle: saline with Tween-80
[8] = dose: 240.0 mg/kg/injection, schedule: Q01DX005 (ip), vehicle: saline with Tween-80
[9] = dose: 25.0 mg/kg/injection, schedule: Q04DX002 (ip), vehicle: saline with Tween-80
[10] = dose: 50.0 mg/kg/injection, schedule: Q04DX002 (ip), vehicle: saline with Tween-80
[11] = dose: 100.0 mg/kg/injection, schedule: Q04DX002 (ip), vehicle: saline with Tween-80
[12] = dose: 100.0 mg/kg/injection, schedule: Q01DX009 (ip), vehicle: saline with Tween-80
[13] = dose: 50.0 mg/kg/injection, schedule: Q01DX005 (ip), vehicle: Klucel (hydroxypropylcellulose) (HPC)
[14] = dose: 200.0 mg/kg/injection, schedule: Q01DX005 (ip), vehicle: Klucel (hydroxypropylcellulose) (HPC)
[15] = dose: 50.0 mg/kg/injection, schedule: Q01DX009 (ip), vehicle: saline with Tween-80
[16] = dose: 200.0 mg/kg/injection, schedule: Q01DX009 (ip), vehicle: saline with Tween-80

`C=C1C(=O)OC2C1CCC1(C)CCCC(=C)C21` (stereo not drawn) was tested, and the T/C (dose: 2.5 mg/kg/injection, schedule: Q01DX009 (ip), vehicle: Klucel (hydroxypropylcellulose) (HPC)) was 93 % of control, the T/C [1] was 96 % of control and the T/C [2] was 92 % of control. For the same compound, the T/C [3] was 96 % of control.

`CC(=O)C[n+]1ccc(C)cc1Sc1ccccc1C` was tested, and the T/C (dose: 25.0 mg/kg/injection, schedule: Q01DX005 (ip), vehicle: saline with Tween-80) was 101 % of control and 103 % of control, the T/C [4] was 111 % of control and 113 % of control and 122 % of control and the T/C [5] was 118 % of control and 120 % of control.

In the case of `CC1(C)CC(O)(CC2CCC34C(=O)OC(C)(CCC3Br)C24)CCC1Br` (stereo not drawn), the T/C [1] is reported as 93 % of control, the T/C [2] is reported as 109 % of control and the T/C [3] is reported as 100 % of control.

With `Cn1ccc2c1CC(=O)NC2=O` the T/C (dose: 3.12 mg/kg/injection, schedule: Q04DX003 (ip), vehicle: Klucel (hydroxypropylcellulose) (HPC)) was 100 % of control, the T/C (dose: 6.25 mg/kg/injection, schedule: Q04DX003 (ip), vehicle: Klucel (hydroxypropylcellulose) (HPC)) was 108 % of control and the T/C (dose: 12.5 mg/kg/injection, schedule: Q04DX003 (ip), vehicle: Klucel (hydroxypropylcellulose) (HPC)) was 114 % of control. For the same compound, the T/C (dose: 100.0 mg/kg/injection, schedule: Q04DX003 (ip), vehicle: Klucel (hydroxypropylcellulose) (HPC)) was 106 % of control.

With `CC(CCl)OC(=O)Nc1cccc(C(F)(F)F)c1` (stereo not drawn) the T/C [6] was 106 % of control, the T/C [7] was 102 % of control and the T/C [8] was 107 % of control.

With `C=CCc1ccccc1C1=[N+](C)C(C)(C)CO1` the T/C [9] was 100 % of control, the T/C [10] was 102 % of control and the T/C [11] was 97 % of control.

For `O=C1CSC(=Nc2ccccc2)N1c1ncccn1`, the T/C (dose: 50.0 mg/kg/injection, schedule: Q01DX009 (ip), vehicle: Klucel (hydroxypropylcellulose) (HPC)) was 103 % of control, the T/C (dose: 100.0 mg/kg/injection, schedule: Q01DX009 (ip), vehicle: Klucel (hydroxypropylcellulose) (HPC)) was 102 % of control and the T/C (dose: 200.0 mg/kg/injection, schedule: Q01DX009 (ip), vehicle: Klucel (hydroxypropylcellulose) (HPC)) was 102 % of control.

`C=CC(=O)NCNC(=O)C=C` was tested, and the T/C [12] was 172 % of control, the T/C (dose: 132.0 mg/kg/injection, schedule: Q04DX003 (ip), vehicle: saline with Tween-80) was 118 % of control and the T/C (dose: 200.0 mg/kg/injection, schedule: Q04DX003 (ip), vehicle: saline sonified) was 159 % of control. The T/C (dose: 300.0 mg/kg/injection, schedule: Q04DX003 (ip), vehicle: saline with Tween-80) was 181 % of control.

`Nc1nnc(-c2ccccc2S)o1` was tested, and the T/C [6] was 103 % of control, the T/C [7] was 108 % of control and the T/C [8] was 110 % of control.

`CC(C)C(C(F)C(=O)OCc1ccccc1)N(Cc1ccccc1)Cc1ccccc1` (stereo not drawn) was tested, and the T/C [13] was 98 % of control, the T/C (dose: 100.0 mg/kg/injection, schedule: Q01DX005 (ip), vehicle: Klucel (hydroxypropylcellulose) (HPC)) was 91 % of control and the T/C [14] was 89 % of control.

In the case of `CC[C@@]1(O)C(=O)OCc2c1cc1n(c2=O)Cc2cc3c(N)cccc3nc2-1`, the T/C (dose: 0.12 mg/kg/injection, schedule: Q01DX005 (ip), vehicle: saline with Tween-80) is reported as 153 % of control, the T/C (dose: 0.25 mg/kg/injection, schedule: Q01DX005 (ip), vehicle: saline with Tween-80) is reported as 153 % of control and the T/C (dose: 0.5 mg/kg/injection, schedule: Q01DX005 (ip), vehicle: saline with Tween-80) is reported as 180 % of control and 204 % of control. For the same compound, the T/C (dose: 1.0 mg/kg/injection, schedule: Q01DX005 (ip), vehicle: saline with Tween-80) was 180 % of control.

`O=S1(=O)c2ccccc2C(O)(c2ccccc2)c2cc3ccccc3n21` (stereo not drawn) was tested, and the T/C [15] was 93 % of control, the T/C [12] was 96 % of control and the T/C [16] was 92 % of control.

For `Cn1nc(NC(=O)C(F)(F)F)c2ncc(-c3ccc(Cl)cc3)nc21`, the T/C (dose: 100.0 mg/kg/injection, schedule: Q04DX003 (ip), vehicle: saline with Tween-80) was 100 % of control, the T/C (dose: 200.0 mg/kg/injection, schedule: Q04DX003 (ip), vehicle: saline with Tween-80) was 90 % of control and the T/C (dose: 400.0 mg/kg/injection, schedule: Q04DX003 (ip), vehicle: saline with Tween-80) was 90 % of control.

With `COc1cc[c]([Sb]2([c]3ccc(OC)cc3)([c]3ccc(OC)cc3)[NH]c3cc(C(c4ccccc4)(c4ccccc4)c4ccccc4)cc(C(C)(C)C)c3[O]2)cc1` the T/C [15] was 100 % of control, the T/C [12] was 99 % of control and the T/C [16] was 100 % of control.

For `C=C(CC(=O)O)C(N)C(=O)O` (stereo not drawn), the T/C (dose: 60.0 mg/kg/injection, schedule: Q01DX005 (ip), vehicle: Klucel (hydroxypropylcellulose) (HPC)) was 104 % of control, the T/C (dose: 120.0 mg/kg/injection, schedule: Q01DX005 (ip), vehicle: Klucel (hydroxypropylcellulose) (HPC)) was 100 % of control and the T/C (dose: 240.0 mg/kg/injection, schedule: Q01DX005 (ip), vehicle: Klucel (hydroxypropylcellulose) (HPC)) was 106 % of control.

With `[Cl][Al]([Cl])[Cl]` the T/C (dose: 6.25 mg/kg/injection, schedule: Q01DX009 (ip), vehicle: saline) was 100 % of control, the T/C (dose: 12.5 mg/kg/injection, schedule: Q01DX009 (ip), vehicle: saline sonified) was 100 % of control and the T/C (dose: 12.5 mg/kg/injection, schedule: Q01DX009 (ip), vehicle: saline) was 100 % of control. For the same compound, the T/C (dose: 25.0 mg/kg/injection, schedule: Q01DX009 (ip), vehicle: saline sonified) was 90 % of control, the T/C (dose: 25.0 mg/kg/injection, schedule: Q01DX009 (ip), vehicle: saline) was 95 % of control and the T/C (dose: 50.0 mg/kg/injection, schedule: Q01DX009 (ip), vehicle: saline sonified) was 95 % of control. For the same compound, the T/C (dose: 100.0 mg/kg/injection, schedule: Q04DX003 (ip), vehicle: saline) was 90 % of control, the T/C (dose: 200.0 mg/kg/injection, schedule: Q04DX003 (ip), vehicle: saline) was 95 % of control and 100 % of control and the T/C (dose: 400.0 mg/kg/injection, schedule: Q04DX003 (ip), vehicle: saline) was 86 % of control.

In the case of `O=C(CCN1CCCCC1)Nc1ccc(F)cc1F`, the T/C [4] is reported as 97 % of control, the T/C [5] is reported as 99 % of control and the T/C (dose: 200.0 mg/kg/injection, schedule: Q01DX005 (ip), vehicle: saline with Tween-80) is reported as 100 % of control.

In the case of `CN(Nc1ccnc(=O)[nH]1)c1ccccc1`, the T/C [6] is reported as 105 % of control, the T/C [7] is reported as 102 % of control and the T/C [8] is reported as 93 % of control.

In the case of `COc1ccc(-n2c(N)c(C#N)c3c(c2=S)CCCC3)cc1`, the T/C (dose: 50.0 mg/kg/injection, schedule: Q01DX005 (ip), vehicle: Klucel + Tween-80) is reported as 100 % of control, the T/C (dose: 100.0 mg/kg/injection, schedule: Q01DX005 (ip), vehicle: Klucel + Tween-80) is reported as 104 % of control and the T/C (dose: 200.0 mg/kg/injection, schedule: Q01DX005 (ip), vehicle: Klucel + Tween-80) is reported as 95 % of control.

With `O=[N+]([O-])c1ccc(N2CCOCC2)c2c1no[n+]2[O-]` the T/C (dose: 8.0 mg/kg/injection, schedule: Q04DX003 (ip), vehicle: suspension in saline) was 98 % of control, the T/C (dose: 16.0 mg/kg/injection, schedule: Q04DX003 (ip), vehicle: suspension in saline) was 105 % of control and the T/C (dose: 32.0 mg/kg/injection, schedule: Q04DX003 (ip), vehicle: suspension in saline) was 99 % of control. The T/C (dose: 64.0 mg/kg/injection, schedule: Q04DX003 (ip), vehicle: suspension in saline) was 123 % of control.

For `COC(=O)C1=C(C)NC(C)=C(C(=O)OCCCN2CCC(c3ccccc3)(c3ccccc3)CC2)C1c1cccc([N+](=O)[O-])c1` (stereo not drawn), the T/C (dose: 15.0 mg/kg/injection, schedule: Q01DX005 (ip), vehicle: saline with Tween-80) was 100 % of control, the T/C (dose: 30.0 mg/kg/injection, schedule: Q01DX005 (ip), vehicle: saline with Tween-80) was 103 % of control and the T/C [6] was 99 % of control.

For `O=C(/C=C/c1ccccc1)O[C@@H]1CC2CC1C[C@H]2c1cnc[nH]1` (stereo partly drawn), the T/C [9] was 100 % of control, the T/C [10] was 101 % of control and the T/C [11] was 92 % of control.

In the case of `CC(=O)Oc1ccccc1C(=O)OC1CC(C)CCC1C(C)C` (stereo not drawn), the T/C (dose: 12.5 mg/kg/injection, schedule: Q01DX005 (ip), vehicle: Klucel (hydroxypropylcellulose) (HPC)) is reported as 99 % of control, the T/C (dose: 25.0 mg/kg/injection, schedule: Q01DX005 (ip), vehicle: Klucel (hydroxypropylcellulose) (HPC)) is reported as 106 % of control and the T/C [13] is reported as 88 % of control and 94 % of control. The T/C [14] was 103 % of control.

`O=c1[nH]c(=O)c2nc(-c3ccc4c(c3)OCO4)cnc2[nH]1` was tested, and the T/C (dose: 100.0 mg/kg/injection, schedule: Q04DX003 (ip), vehicle: lactic acid) was 93 % of control and the T/C (dose: 200.0 mg/kg/injection, schedule: Q04DX003 (ip), vehicle: lactic acid) was 87 % of control.
